From ChEMBL document CHEMBL3039007, “Structure-based identification of OATP1B1/3 inhibitors” (Mol Pharmacol, 2013) come the findings set out here.

Residues, ends and D or L forms follow the SMILES beside them.

The target of data set [1] is T1, Solute carrier organic anion transporter family member 1B3 (Homo sapiens, UniProt Q9NPD5).
T1 sequence (Q9NPD5 whole entry): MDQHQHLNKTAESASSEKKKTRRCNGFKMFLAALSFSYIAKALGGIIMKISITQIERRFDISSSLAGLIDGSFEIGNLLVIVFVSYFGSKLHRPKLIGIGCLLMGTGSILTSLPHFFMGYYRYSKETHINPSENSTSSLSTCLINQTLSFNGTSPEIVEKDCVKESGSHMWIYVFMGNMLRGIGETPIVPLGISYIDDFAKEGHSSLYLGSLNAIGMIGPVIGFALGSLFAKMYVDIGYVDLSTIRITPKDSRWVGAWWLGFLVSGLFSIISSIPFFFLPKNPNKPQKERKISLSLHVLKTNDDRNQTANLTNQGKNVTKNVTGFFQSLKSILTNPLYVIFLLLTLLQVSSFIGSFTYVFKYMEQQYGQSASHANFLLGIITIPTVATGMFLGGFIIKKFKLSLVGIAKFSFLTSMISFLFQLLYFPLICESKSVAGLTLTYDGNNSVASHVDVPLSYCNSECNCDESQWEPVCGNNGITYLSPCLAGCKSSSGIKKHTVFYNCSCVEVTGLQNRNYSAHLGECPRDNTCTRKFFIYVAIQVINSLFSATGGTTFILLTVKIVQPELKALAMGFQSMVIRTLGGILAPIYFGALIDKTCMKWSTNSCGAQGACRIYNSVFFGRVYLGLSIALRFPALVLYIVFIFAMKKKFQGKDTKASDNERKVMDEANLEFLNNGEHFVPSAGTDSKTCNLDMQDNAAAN
The conditions noted are these: chinese hamster, cho, 10 µM.

Data set [2] concerns the target T2, Solute carrier organic anion transporter family member 1B1 (Homo sapiens, UniProt Q9Y6L6).
T2 sequence (Q9Y6L6 whole entry): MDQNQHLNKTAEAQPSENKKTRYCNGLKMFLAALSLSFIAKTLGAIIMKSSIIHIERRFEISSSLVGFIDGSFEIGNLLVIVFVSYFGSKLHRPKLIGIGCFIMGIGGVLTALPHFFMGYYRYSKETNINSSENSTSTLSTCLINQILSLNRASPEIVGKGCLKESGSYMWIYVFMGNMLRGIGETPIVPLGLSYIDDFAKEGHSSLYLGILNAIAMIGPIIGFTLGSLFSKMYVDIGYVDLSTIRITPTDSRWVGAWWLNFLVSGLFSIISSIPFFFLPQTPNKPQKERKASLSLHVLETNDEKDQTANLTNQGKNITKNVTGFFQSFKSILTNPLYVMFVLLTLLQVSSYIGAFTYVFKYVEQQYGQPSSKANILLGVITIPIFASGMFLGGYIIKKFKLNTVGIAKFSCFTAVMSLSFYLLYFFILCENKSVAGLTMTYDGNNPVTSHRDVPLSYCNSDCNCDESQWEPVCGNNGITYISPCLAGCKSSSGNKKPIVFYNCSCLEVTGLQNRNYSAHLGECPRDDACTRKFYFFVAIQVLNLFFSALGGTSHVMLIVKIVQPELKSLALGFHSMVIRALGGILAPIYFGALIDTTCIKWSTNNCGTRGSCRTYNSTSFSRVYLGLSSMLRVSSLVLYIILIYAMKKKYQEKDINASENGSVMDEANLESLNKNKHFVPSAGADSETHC
As to conditions: chinese hamster, cho, 10 µM.

Usually residual activity stands for the signal under treatment as a percentage of the control signal. In the case of `COC1=C(OC)C(=O)C(C/C=C(\C)CC/C=C(\C)CC/C=C(\C)CC/C=C(\C)CC/C=C(\C)CC/C=C(\C)CC/C=C(\C)CC/C=C(\C)CC/C=C(\C)CCC=C(C)C)=C(C)C1=O` [UBIDECARENONE], the residual activity in data set [1] stood at 137.7%; in data set [2], 118.6%.

In the case of `O=c1ccc2ccc(O)cc2o1` [UMBELLIFERONE], the residual activity in data set [1] was 76.49%; in data set [2], 26.71%.

On to `NC(N)=O` [UREA], for which the residual activity in data set [1] was 105.9%; in data set [2], 87.46%.

`COc1ccc(C(=O)CC(=O)O)c2c1C=CC(C)(C)O2` [URSINOIC ACID]: the values for the residual activity in data set [1] and in data set [2] were 105.2% and 116%, respectively.

`C[C@H](CCC(=O)O)[C@H]1CC[C@H]2[C@@H]3CC[C@@H]4CCCC[C@]4(C)[C@H]3CC[C@]12C` [URSOCHOLANIC ACID]: the residual activity in data set [1] turned out to be 102.7%; in data set [2] it was 98.45%.

Consider `C[C@H](CCC(=O)O)[C@H]1CC[C@H]2[C@@H]3[C@@H](O)C[C@@H]4C[C@H](O)CC[C@]4(C)[C@H]3CC[C@]12C` [URSODIOL], for which the residual activity worked out at 149.7% in data set [1] and 70.93% in data set [2].

Take `C[C@H]1[C@H](C)CC[C@]2(CO)CC[C@]3(C)C(=CC[C@@H]4[C@@]5(C)CC[C@H](O)C(C)(C)[C@@H]5CC[C@]43C)[C@H]12` [UVAOL]: the residual activity was 107.5% in data set [1] and 121.5% in data set [2].

On to `CC(C)[C@H](N)C(=O)OCCOCn1cnc2c(=O)[nH]c(N)nc21.Cl` [VALACYCLOVIR HYDROCHLORIDE], for which the values for the residual activity in data set [1] and in data set [2] were 80.91% and 68.57%, respectively.

On to `Cc1onc(-c2ccccc2)c1-c1ccc(S(N)(=O)=O)cc1` [VALDECOXIB], for which the residual activity in data set [1] stood at 94.41%; in data set [2], 120.4%.

Take `CCCCC(=O)Oc1ccccc1C(=O)O` [VALERYL SALYCILATE]: the residual activity in data set [1] was determined as 92.91%; in data set [2], 78.97%.

Take `CCCC(CCC)C(=O)[O-].[Na+]` [VALPROATE SODIUM]: the values for the residual activity in data set [1] and in data set [2] were 125.1% and 90.61%, respectively.

As for `CC(C)[C@H](N)C(=O)N[C@@H](Cc1c[nH]c2ccccc12)C(=O)O` [VALYLTRYPTOPHAN] (H-Val-Trp-OH), the residual activity came out at 102.8% in data set [1] and 100.2% in data set [2].

Regarding `CN[C@H](CC(C)C)C(=O)N[C@H]1C(=O)N[C@@H](CC(N)=O)C(=O)N[C@H]2C(=O)N[C@H]3C(=O)N[C@H](C(=O)N[C@H](C(=O)O)c4cc(O)cc(O)c4-c4cc3ccc4O)[C@H](O)c3ccc(c(Cl)c3)Oc3cc2cc(c3O[C@@H]2O[C@H](CO)[C@@H](O)[C@H](O)[C@H]2O[C@H]2C[C@](C)(N)[C@H](O)[C@H](C)O2)Oc2ccc(cc2Cl)[C@H]1O.Cl` [VANCOMYCIN HYDROCHLORIDE], the values for the residual activity in data set [1] and in data set [2] were 103.2% and 99.99%, respectively.

Regarding `Nc1c2c(nc3ccccc13)CCCC2O.O=C(O)/C=C\C(=O)O` (stereo not given) [VELNACRINE MALEATE], the residual activity in data set [1] was 96.75%; in data set [2] it was 103.3%.

Take `COc1ccc(C(=O)O)cc1OC` [VERATRIC ACID]: the residual activity turned out to be 106.9% in data set [1] and 111.3% in data set [2].

For `COc1ccc(C(=O)O[C@H]2CC[C@@]3(C)[C@@H]4CC[C@H]5[C@]6(O)C[C@H](O)[C@@]7(O)[C@@H](CN8C[C@@H](C)CC[C@H]8[C@@]7(C)O)[C@]6(O)C[C@@]53O[C@]24O)cc1OC` [VERATRIDINE], the residual activity in data set [1] came to 133.7%; in data set [2] it was 82.28%.

`Cl.OC1CCCCC1N1CCC(c2ccccc2)CC1` (stereo not given) [VESAMICOL HYDROCHLORIDE]: the values for the residual activity in data set [1] and in data set [2] were 101.2% and 64.34%, respectively.

Consider `C=CC(N)CCC(=O)O` (stereo not given) [VIGABATRIN], for which the residual activity in data set [1] came out at 94.41%; in data set [2], 78.69%.

On to `CC[C@]12CCCN3CCc4c(n(c5ccccc45)C(=O)C1)[C@@H]32` [VINBURNINE], for which the values for the residual activity in data set [1] and in data set [2] were 115.3% and 97.38%, respectively.

For `CC[C@]12CCCN3CCc4c(n(c5ccccc45)[C@@](O)(C(=O)OC)C1)[C@@H]32` [VINCAMINE], the residual activity in data set [1] is recorded as 88.88%; in data set [2] it was 72.87%.

On to `CCOC(=O)C1=C[C@]2(CC)CCCN3CCc4c(n1c1ccccc41)[C@@H]32` [VINPOCETINE], for which the residual activity was 109.4% in data set [1] and 167.7% in data set [2].

Regarding `COc1cc(C/C=C/c2ccccc2)c(OC)cc1O` [VIOLASTYRENE], the figures for the residual activity in data set [1] and in data set [2] were 47.88% and 27.49%, respectively.

In the case of `COc1c2ccoc2cc2oc(C)cc(=O)c12` [VISNAGIN], the residual activity was determined as 98.15% in data set [1] and 127.2% in data set [2].

Take `CCCCCCCCCCCCCCCC(=O)OC/C=C(C)/C=C/C=C(C)/C=C/C1=C(C)CCCC1(C)C` [VITAMIN A PALMITATE]: the residual activity in data set [1] is reported as 85.92%; in data set [2], 77.04%.

Consider `COC(=O)/C(=C1/OC(=O)C(c2ccccc2)=C1O)c1ccccc1` [VULPINIC ACID], for which the residual activity in data set [1] turned out to be 83.34%; in data set [2] it was 57.14%.

For the molecule `CC(=O)CC(c1ccccc1)c1c(O)c2ccccc2oc1=O` (stereo not given) [WARFARIN], the values for the residual activity in data set [1] and in data set [2] were 66.67% and 122.2%, respectively.

As to `O=c1c2ccccc2oc2ccccc12` [XANTHONE], the figures for the residual activity in data set [1] and in data set [2] were 131.5% and 123.7%, respectively.

As to `Nc1nc(=O)c2[nH]c(=O)cnc2[nH]1` [XANTHOPTERIN], the residual activity is 104.7% in data set [1] and 104.4% in data set [2].

With `COc1cc(O)c(C(C)=O)c(OC)c1` [XANTHOXYLIN], the figures for the residual activity in data set [1] and in data set [2] were 104.3% and 128.7%, respectively.

In the case of `O=C(O)c1cc(O)c2cccc(O)c2n1` [XANTHURENATE], the results for the residual activity in data set [1] and in data set [2] were 99.4% and 115.8%, respectively.

In the case of `CC1(C)C=Cc2cc3ccc(=O)oc3cc2O1` [XANTHYLETIN], the residual activity came out at 85.95% in data set [1] and 75.53% in data set [2].

As to `Cc1cccc(C)c1N=C1NCCCS1` [XYLAZINE], the residual activity in data set [1] stood at 83.59%; in data set [2], 64.31%.

As to `COC(=O)CC1C(C)(C)C(OC(C)=O)[C@@H]2[C@@H](OC(C)=O)[C@]34O[C@@]2(O)[C@]1(C)C3CC[C@]1(C)C4=CC(=O)O[C@H]1c1ccoc1` (stereo not given in full) [XYLOCARPUS A], the results for the residual activity in data set [1] and in data set [2] were 9.764% and 22.54%, respectively.

Consider `Cc1cc(C(C)(C)C)cc(C)c1CC1=NCCN1.Cl` [XYLOMETAZOLINE HYDROCHLORIDE], for which the residual activity was determined as 99.17% in data set [1] and 86.29% in data set [2].

Take `CCCOc1ccccc1-c1nc2nn[nH]c2c(=O)[nH]1` [ZAPRINAST]: the residual activity in data set [1] was 86.99%; in data set [2], 98.85%.

For the molecule `C[C@H]1CCCC(=O)CCC/C=C/c2cc(O)cc(O)c2C(=O)O1` [ZEARALENONE], the values for the residual activity in data set [1] and in data set [2] were 91.51% and 55.9%, respectively.

`Cc1cn([C@H]2C[C@H](N=[N+]=[N-])[C@@H](CO)O2)c(=O)[nH]c1=O` [ZIDOVUDINE]: the residual activity worked out at 95.75% in data set [1] and 134% in data set [2].

Take `CN(C)CCc1c[nH]c2ccc(C[C@H]3COC(=O)N3)cc12` [ZOLMITRIPTAN]: the values for the residual activity in data set [1] and in data set [2] were 102.5% and 95.98%, respectively.

Regarding `Cc1ccc(-c2nc3ccc(C)cn3c2CC(=O)N(C)C)cc1` [ZOLPIDEM], the residual activity came to 78.05% in data set [1] and 177.4% in data set [2].

With `Cc1cc(CC(=O)[O-])n(C)c1C(=O)c1ccc(Cl)cc1.O.O.[Na+]` [ZOMEPIRAC SODIUM], the figures for the residual activity in data set [1] and in data set [2] were 118.7% and 132.9%, respectively.
